The results in this text go back to ChEMBL document CHEMBL2074350, “Immunosuppressants FK506 and rapamycin function as reversal agents of the multidrug resistance phenotype” (Blood, 1992).

The structures appear in SMILES notation.

The target in the data set is ATP-dependent translocase ABCB1 (Homo sapiens, UniProt P08183). The data set is described as follows: TP_TRANSPORTER: increase in Daunomycin intracellular accumulation (Daunomycin: 10 uM, Rapamycin: 5 uM) in CEM/VBL 250 cells. The data set is classed as functional, cell-based. The note with it: cem/vbl 250, 5 µM.
Chain of ATP-dependent translocase ABCB1 (P08183 whole entry): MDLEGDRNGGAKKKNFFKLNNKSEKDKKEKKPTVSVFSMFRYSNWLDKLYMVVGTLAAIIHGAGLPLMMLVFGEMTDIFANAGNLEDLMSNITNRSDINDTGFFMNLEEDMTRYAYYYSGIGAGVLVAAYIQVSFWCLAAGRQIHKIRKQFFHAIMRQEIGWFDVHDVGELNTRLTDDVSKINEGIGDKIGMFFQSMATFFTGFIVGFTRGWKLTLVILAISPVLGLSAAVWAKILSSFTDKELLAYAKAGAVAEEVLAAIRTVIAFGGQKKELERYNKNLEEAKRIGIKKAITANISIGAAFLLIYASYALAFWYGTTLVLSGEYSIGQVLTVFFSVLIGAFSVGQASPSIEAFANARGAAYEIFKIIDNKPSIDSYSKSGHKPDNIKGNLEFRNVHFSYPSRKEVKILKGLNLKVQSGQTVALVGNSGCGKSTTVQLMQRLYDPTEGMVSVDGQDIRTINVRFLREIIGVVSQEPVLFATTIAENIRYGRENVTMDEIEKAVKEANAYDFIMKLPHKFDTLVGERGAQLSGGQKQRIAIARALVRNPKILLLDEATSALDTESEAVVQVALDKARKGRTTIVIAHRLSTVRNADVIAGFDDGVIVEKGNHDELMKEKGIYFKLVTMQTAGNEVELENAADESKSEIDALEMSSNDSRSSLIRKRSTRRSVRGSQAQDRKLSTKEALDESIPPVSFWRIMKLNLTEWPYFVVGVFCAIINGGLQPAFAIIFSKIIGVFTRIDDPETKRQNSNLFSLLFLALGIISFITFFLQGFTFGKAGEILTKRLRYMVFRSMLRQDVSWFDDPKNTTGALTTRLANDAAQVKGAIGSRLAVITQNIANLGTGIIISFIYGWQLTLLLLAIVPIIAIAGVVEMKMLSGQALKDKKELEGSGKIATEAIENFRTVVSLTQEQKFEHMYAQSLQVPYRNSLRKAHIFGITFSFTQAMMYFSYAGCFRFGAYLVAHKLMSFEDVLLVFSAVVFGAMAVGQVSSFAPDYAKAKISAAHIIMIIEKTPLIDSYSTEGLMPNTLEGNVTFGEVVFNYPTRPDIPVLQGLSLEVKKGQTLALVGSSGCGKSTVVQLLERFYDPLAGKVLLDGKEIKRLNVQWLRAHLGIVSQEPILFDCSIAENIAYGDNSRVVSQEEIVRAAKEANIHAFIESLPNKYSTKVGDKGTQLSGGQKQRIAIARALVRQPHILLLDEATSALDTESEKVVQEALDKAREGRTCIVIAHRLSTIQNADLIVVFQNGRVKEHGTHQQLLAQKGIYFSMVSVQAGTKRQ

For `CO[C@H]1C[C@@H]2CC[C@@H](C)[C@@](O)(O2)C(=O)C(=O)N2CCCC[C@H]2C(=O)O[C@H]([C@H](C)C[C@@H]2CC[C@@H](O)[C@H](OC)C2)CC(=O)[C@H](C)/C=C(\C)[C@@H](O)[C@@H](OC)C(=O)[C@H](C)C[C@H](C)/C=C/C=C/C=C/1C` [SIROLIMUS], the Activity entry was “inhibitor [(at a rough estimate) 7-fold]”.
